Patent US8153424B2, “Method of in vitro differentiation of neural stem cells, motor neurons and dopamine neurons from primate embryonic stem cells” (Wisconsin Alumni Research Foundation, priority 2001, dated 2012)

Experiments:
Format in all cases: cell-based, human
[1] = test system: voltage-gated sodium channels
[2] = test system: voltage-activated sodium channels
[3] = test system: hESC-derived neural precursors; experiment: BrdU incorporation by dissociated ES cell-derived neural precursors; settings: FGF2 20 ng/ml, EGF 20 ng/ml, LIF 5 ng/ml; each alone
Procedure: Histochemical and immunohistochemical staining. To better visualize the rosette formations, cultures with rosettes were rinsed with PBS and fixed in 4% paraformaldehyde and 0.25% glutaraldehyde for 1 hour. The fixed cells were then processed for embedding in plastic resin as described (Zhang et al., supra, 1999). The cultured cells were then sectioned in 1-μm thickness and stained with toluidine blue. For immunostaining, the coverslip cultures were immunostained with the following primary antibodies detected by appropriate fluorescent secondary antibodies detailed elsewhere (Zhang et al., supra, 2000; Zhang et al., supra, 1999): anti-nestin (polyclonal, gift of Dr. R. McKay of NINDS, 1:1,000); anti-polysialylated neuronal cell adhesion molecule (PSA-NCAM, mouse IgM, gift of Dr. G. Rougon of University of Marseille, France, 1:200); anti-Musashi-1 (rat IgG, gift of Dr. H. Okano, University of Tokyo, Japan, 1:500); anti-GFAP (polyclonal, Dako, 1:1,000); anti-human GFAP (Sternberg monoclonals, 1:10,000); O4 (mouse IgM, hybridoma supernatant, 1:50); anti-tyrosine hydroxylase (TH, Pel Freez, 1:500). The remaining antibodies were from Sigma: anti-βIII-tubulin (mouse IgG, 1:500); anti-neurofilament (NF) 68 (mouse IgG, 1:1,000); anti-NF 200 (polyclonal, 1:5,000); anti-MAP2ab (mouse IgG, 1:250); anti-γ-aminobutyric acid (GABA, polyclonal, 1:10,000); anti-glutamate (mouse IgG, 1:10,000). For bromodeoxyuridine (BrdU) incorporation, 4 coverslip cultures in each group were incubated with 2 μM of BrdU for sixteen hours before the cultures were fixed in 4% paraformaldehyde, denatured with 1N HCl and processed for immunolabeling and cell counting (Zhang et al., supra, 2000; Zhang et al., supra, 1999).

[4] = test system: early rosette cells (Pax6+/Sox1-); experiment: RT-PCR of rostrocaudal genes in early rosette cells; settings: RA 0.001-1.0 μM or FGF2 20 ng/ml for seven days; dose-dependent
Procedure: RT-PCR amplifications were performed from hESC-derived neuroectodermal cells at different stages and motor neuron differentiation cultures. The following primers were used: […] ID NO:11), [NT] ID NO:12), 318 bp; […] ID NO:13), [NT] ID NO:14), 290 bp; […] ID NO:15), [NT] ID NO:16), 340 bp; […] ID NO:17), [NT] ID NO:18), 429 bp; HoxBl, [NT] ID NO:19), [NT] ID NO:20), 218 bp; GAPDH, [NT] ID NO:1), [NT] ID NO:2), 450 bpi Olig-2, [NT] ID NO:21), [NT] ID NO:22), 315 bp; […] ID NO:23), [NT] ID NO:24), 337 bp; […] ID NO:25), [NT] ID NO:26), 473 bp; […] ID NO:27), [NT] ID NO:28), 459 bp; SHH, [NT] ID NO:29), [NT] ID NO:30), 339 bp; […] ID NO:31), [NT] ID NO:32), 335 bp.

[5] = test system: hESC-derived EBs (H9 and H9.2 lines); experiment: Formation of neural tube-like structures from embryoid bodies in the presence of FGF2; settings: total 350 EBs from H9 and H9.2 lines, 3 separate experiments
Procedure: Differentiation cultures of ESCs. ESC cultures were incubated with dispase (Gibco BRL, 0.1 mg/ml) at 37° C. for 30 minutes, which removed ESC colonies intact. The ES cell colonies were pelleted, resuspended in ESC medium without FGF2, and cultured for four days in a 25-cm^2 tissue culture flask (Nunc) with a daily medium change. ESC colonies grew as floating EBs whereas any remaining feeder cells adhered to the flask. The feeder cells were removed by transferring the EBs into a new flask. EBs (˜50/flask) were then plated in a 25-cm^2 tissue culture flask (Nunc) in DMEM/F12, supplemented with insulin (25 μg/ml), transferrin (100 μg/ml), progesterone (20 nM), putrescine (60 μM), sodium selenite (30 nM), and heparin (2 μg/ml) in the presence of FGF2 (20 ng/ml) (Zhang et al., supra, 2000; Zhang et al., supra, 1999).

Compound | Effect on inward currents [1] | Effect on inward currents and action potentials [2] | BrdU incorporation (stimulation of precursor cell proliferation) [3] | Expression of Otx2 and Hox genes (Hox B1, B6, C5, C8) [4] | EBs forming neural tube-like structures [5]
NC1=N[C@H](O)[C@H]2[C@H]3O[C@]4(O)O[C@@H]([C@@H](O)[C@@]2(N1)[C@@H]4O)[C@]3(O)CO [TTX, tetrodotoxin] | completely blocked | blocked |  |  | 
FGF2: growth factor FGF2 (Peprotech; R & D Systems) |  |  | elevated | decreased expression of Otx2 and increased expression of Hox genes | 94%
